Assay [1] relates to Cabbage Looper (Trichoplusia ni) ("CL"), second instar larvae. Kind of assay: Bioassay on cabbage looper (CL), 128-well diet tray assay. It is filed as in vivo. The conditions noted are these: for pest or weed control at 50 µg/cm2: Trichoplusia ni; for CL rating: Table ABC, species CL, C = not tested, D = no activity noticed. An outline of the steps:
(§1)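 Read-out: percent larval mortality per well, averaged over 8 wells. Incubation 25° C., 14:10 L:D photoperiod, 5–7 days, trays sealed with clear adhesive cover.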

Assay [2] deals with Beet Armyworm (Spodoptera exigua) ("BAW"), second instar larvae. Kind of assay: Bioassay on beet armyworm (BAW), 128-well diet tray assay. It is filed as in vivo. The conditions noted are these: for pest or weed control at 50 µg/cm2: Spodoptera exigua; for BAW rating: Table ABC, species BAW, C = not tested, D = no activity noticed. An outline of the steps: as §1
Where [3] appears, read: read-out: CL (Biological Results, rating).
Setting [4] is: read-out: BAW (Biological Results, rating).

Like-named read-outs stand apart in the source and are kept apart here.

As for `CCOCc1ccc(C)cc1N1C(=O)CS/C1=N\C(=O)Nc1ccc(-c2ncn(-c3ccc(OC(F)(F)F)cc3)n2)cc1C` [Compound J206, (Z)-1-(3-(2-(Ethoxymethyl)-5-methylphenyl)-4-oxothiazolidin-2-ylidene)-3-(2-methyl-4-(1-(4-(trifluoromethoxy)phenyl)-1H-1,2,4-triazol-3-yl)phenyl)urea], the pest or weed control at 50 µg/cm2 in assay [1] (setting [3]) and in assay [2] (setting [4]) was 50 to 100% each time.

Turning to `CC(C)c1ccc(N(C)C)cc1N1C(=O)CS/C1=N\C(=O)Nc1ccc(-c2ncn(-c3cccc(OC(F)(F)F)c3)n2)cc1F` [Compound J155, (Z)-1-(3-(5-(Dimethylamino)-2-isopropylphenyl)-4-oxothiazolidin-2-ylidene)-3-(2-fluoro-4-(1-(3-(trifluoromethoxy)phenyl)-1H-1,2,4-triazol-3-yl)phenyl)urea], the pest or weed control at 50 µg/cm2 in assay [1] (setting [3]) and in assay [2] (setting [4]) was 50 to 100% in each case.

Consider `Cc1ccc(C(C)C)c(N2C(=O)CS/C2=N\C(=O)Nc2ccc(-c3cn(-c4ccc(C(F)(F)F)cc4)cn3)cc2)c1` [Compound J514, (Z)-1-(3-(2-Isopropyl-5-methylphenyl)-4-oxothiazolidin-2-ylidene)-3-(4-(1-(4-(trifluoromethyl)phenyl)-1H-imidazol-4-yl)phenyl)urea], for which the pest or weed control at 50 µg/cm2 in assay [1] (read-out: CL rating) and in assay [2] (read-out: BAW rating) was 50 to 100% throughout.

Consider `COc1ccc(OCCC(F)(F)F)c(N2C(=O)CS/C2=N\C(=O)Nc2ccc(-c3ncn(-c4ccc(OC(F)(F)F)cc4)n3)cc2)c1` [Compound J320, (Z)-1-(3-(5-Methoxy-2-(3,3,3-trifluoropropoxy)phenyl)-4-oxothiazolidin-2-ylidene)-3-(4-(1-(4-(trifluoromethoxy)phenyl)-1H-1,2,4-triazol-3-yl)phenyl)urea], for which the pest or weed control at 50 µg/cm2 in assay [1] (setting [3]) and in assay [2] (setting [4]) was 50 to 100% each time.

With `CC(C)c1ccc(N(C)C)cc1N1C(=O)CS/C1=N\C(=O)Nc1ccc(-c2ncn(-c3ccc(OC(F)(F)F)cn3)n2)cc1C#N` [Compound J266, (Z)-1-(2-Cyano-4-(1-(5-(trifluoromethoxy)pyridin-2-yl)-1H-1,2,4-triazol-3-yl)phenyl)-3-(3-(5-(dimethylamino)-2-isopropylphenyl)-4-oxothiazolidin-2-ylidene)urea], the pest or weed control at 50 µg/cm2 in assay [1] (setting [3]) and in assay [2] (setting [4]) was 50 to 100% in each case.

With `Cc1ccc(OCC(F)(F)F)c(N2C(=O)CS/C2=N\C(=O)Nc2ccc(-c3ncn(-c4ccc(OC(F)(F)F)cc4)n3)cc2C(F)F)c1` [Compound J212, (Z)-1-(2-(Difluoromethyl)-4-(1-(4-(trifluoromethoxy)phenyl)-1H-1,2,4-triazol-3-yl)phenyl)-3-(3-(5-methyl-2-(2,2,2-trifluoroethoxy)phenyl)-4-oxothiazolidin-2-ylidene)urea], the pest or weed control at 50 µg/cm2 in assay [1] (setting [3]) and in assay [2] (setting [4]) was 50 to 100% each time.

In the case of `CC(C)c1ccc(N(C)C)cc1N1C(=O)CS/C1=N\C(=O)Nc1ccc(-c2ccn(-c3ccc(C(F)(F)F)cn3)n2)cc1F` [Compound J349], the “CL (Biological Results, rating)” value in assay [1] (Cabbage Looper (Trichoplusia ni), C = Not Tested) is “A (50-100)”. Moreover, the “BAW (Biological Results, rating)” value in assay [2] (Beet Armyworm (Spodoptera exigua), C = Not Tested) is listed as “A (50-100)”.

Turning to `CCNc1ccc(C(C)C)c(N2C(=O)CS/C2=N\C(=O)Nc2ccc(-c3ncn(-c4ccc(OC(F)(F)F)cc4)n3)cc2F)c1` [Compound J106, (Z)-1-(3-(5-(Ethylamino)-2-isopropylphenyl)-4-oxothiazolidin-2-ylidene)-3-(2-fluoro-4-(1-(4-(trifluoromethoxy)phenyl)-1H-1,2,4-triazol-3-yl)phenyl)urea], the pest or weed control at 50 µg/cm2 in assay [1] (setting [3]) and in assay [2] (setting [4]) was 50 to 100% throughout.

For the compound `Cc1ccc(C(F)(F)F)c(N2C(=O)CS/C2=N\C(=O)Nc2ccc(-c3ncn(-c4ccc(OC(F)(F)F)cc4)n3)cc2Cl)c1` [Compound J39, (Z)-1-(2-Chloro-4-(1-(4-(trifluoromethoxy)phenyl)-1H-1,2,4-triazol-3-yl)phenyl)-3-(3-(5-methyl-2-(trifluoromethyl)phenyl)-4-oxothiazolidin-2-ylidene)urea], the pest or weed control at 50 µg/cm2 in assay [1] (setting [3]) and in assay [2] (setting [4]) was 50 to 100% in each case.

Consider `CCOc1ccc(-n2cnc(-c3ccc(NC(=O)/N=C4\SCC(=O)N4c4cc(C)ccc4COCC(F)(F)F)c(F)c3)n2)cc1` [Compound J625], for which, in assay [1], the CL rating result was “A (50-100)”. Also, the BAW rating result in assay [2] was “A (50-100)”.

`Cc1ccc(COCC(F)(F)F)c(N2C(=O)CS/C2=N\C(=O)Nc2ccc(-c3ncn(-c4ccc(OC(F)(F)F)cn4)n3)cc2Cl)c1` [Compound J249, (Z)-1-(2-Chloro-4-(1-(5-(trifluoromethoxy)pyridin-2-yl)-1H-1,2,4-triazol-3-yl)phenyl)-3-(3-(5-methyl-2-((2,2,2-trifluoroethoxy)methyl)phenyl)-4-oxothiazolidin-2-ylidene)urea]: the pest or weed control at 50 µg/cm2 in assay [1] (setting [3]) and in assay [2] (setting [4]) was 50 to 100% each time.

As for `Cc1ccc(C(C)C)c(N2C(=O)CS/C2=N\C(=O)Nc2ccc(-c3cn(-c4ccc(S(=O)(=O)C(F)(F)F)cc4)cn3)cc2F)c1` [Compound J651, (Z)-1-(2-Fluoro-4-(1-(4-((trifluoromethyl)sulfonyl)phenyl)-1H-imidazol-4-yl)phenyl)-3-(3-(2-isopropyl-5-methylphenyl)-4-oxothiazolidin-2-ylidene)urea], the pest or weed control at 50 µg/cm2 in assay [1] (read-out: CL rating) and in assay [2] (read-out: BAW rating) was 50 to 100% throughout.

Take `Cc1ccc(OCCC(F)(F)F)c(N2C(=O)CS/C2=N\C(=O)Nc2ccc(-n3cnc(-c4ccc(OC(F)(F)F)cc4)n3)cc2)c1` [Compound J404, (Z)-1-(3-(5-Methyl-2-(3,3,3-trifluoropropoxy)phenyl)-4-oxothiazolidin-2-ylidene)-3-(4-(3-(4-(trifluoromethoxy)phenyl)-1H-1,2,4-triazol-1-yl)phenyl)urea]: the pest or weed control at 50 µg/cm2 in assay [1] (read-out: CL rating) and in assay [2] (read-out: BAW rating) was 50 to 100% each time.

For the compound `Cc1ccc(OCC(F)(F)F)c(N2C(=O)CS/C2=N\C(=O)Nc2ccc(-c3ncn(-c4ccc(C(F)(F)F)cc4)n3)cc2F)c1` [Compound J63, (Z)-1-(2-Fluoro-4-(1-(4-(trifluoromethyl)phenyl)-1H-1,2,4-triazol-3-yl)phenyl)-3-(3-(5-methyl-2-(2,2,2-trifluoroethoxy)phenyl)-4-oxothiazolidin-2-ylidene)urea], the pest or weed control at 50 µg/cm2 in assay [1] (setting [3]) and in assay [2] (setting [4]) was 50 to 100% throughout.

For the compound `Cc1cc(-c2cn(-c3ccc(C(F)(F)F)cc3)cn2)ccc1NC(=O)/N=C1\SCC(=O)N1c1cc(N(C)C)ccc1C(C)C` [Compound J524, (Z)-1-(3-(5-(Dimethylamino)-2-isopropylphenyl)-4-oxothiazolidin-2-ylidene)-3-(2-methyl-4-(1-(4-(trifluoromethyl)phenyl)-1H-imidazol-4-yl)phenyl)urea], the pest or weed control at 50 µg/cm2 in assay [1] (read-out: CL rating) and in assay [2] (read-out: BAW rating) was 50 to 100% in each case.

As for `Cc1ccc(OCCC(F)(F)F)c(N2C(=O)CS/C2=N\C(=O)Nc2ccc(-c3ncn(-c4ccc([S+]([O-])C(F)(F)F)cc4)n3)cc2F)c1` (centres unmarked) [Compound J382, (Z)-1-(2-Fluoro-4-(1-(4-((trifluoromethyl)sulfinyl)phenyl)-1H-1,2,4-triazol-3-yl)phenyl)-3-(3-(5-methyl-2-(3,3,3-trifluoropropoxy)phenyl)-4-oxothiazolidin-2-ylidene)urea], the pest or weed control at 50 µg/cm2 in assay [1] (read-out: CL rating) and in assay [2] (read-out: BAW rating) was 50 to 100% in each case.

Regarding `Cc1ccc(COCC(F)(F)Cl)c(N2C(=O)CS/C2=N\C(=O)Nc2ccc(-c3ncn(-c4ccc(S(F)(F)(F)(F)F)cc4)n3)cc2F)c1` [Compound J449], the CL rating result in assay [1] was “A (50-100)”. Further, the BAW rating entry in assay [2] is “A (50-100)”.

Turning to `CC(C)c1ccc(N(C)C)cc1N1C(=O)CS/C1=N\C(=O)Nc1ccc(-c2cn(-c3ccc(OC(F)(F)F)cc3)cn2)cc1F` [Compound J474, (Z)-1-(3-(5-(Dimethylamino)-2-isopropylphenyl)-4-oxothiazolidin-2-ylidene)-3-(2-fluoro-4-(1-(4-(trifluoromethoxy)phenyl)-1H-imidazol-4-yl)phenyl)urea], the pest or weed control at 50 µg/cm2 in assay [1] (read-out: CL rating) and in assay [2] (read-out: BAW rating) was 50 to 100% each time.

On to `Cc1ccc(OCC(F)(F)F)c(N2C(=O)CS/C2=N\C(=O)Nc2ccc(-c3cn(-c4ccc(S(F)(F)(F)(F)F)cc4)cn3)cc2F)c1` [Compound J596, (Z)-1-(2-Fluoro-4-(1-(4-(pentafluoro-λ^6-sulfaneyl)phenyl)-1H-imidazol-4-yl)phenyl)-3-(3-(5-methyl-2-(2,2,2-trifluoroethoxy)phenyl)-4-oxothiazolidin-2-ylidene)urea], for which the pest or weed control at 50 µg/cm2 in assay [1] (read-out: CL rating) and in assay [2] (read-out: BAW rating) was 50 to 100% each time.

As to `COc1ccc(COCC(F)(F)F)c(N2C(=O)CS/C2=N\C(=O)Nc2ccc(-c3ncn(-c4ccc(C(F)(F)F)cc4)n3)cc2F)c1` [Compound J581], the CL rating result in assay [1] is given as “A (50-100)”. In assay [2], the BAW rating result was “A (50-100)”.

As to `CCCc1ccc(N(C)C)cc1N1C(=O)CS/C1=N\C(=O)Nc1ccc(-c2ncn(-c3ccc(OC(F)(F)F)cn3)n2)cc1F` [Compound J258, (Z)-1-(3-(5-(Dimethylamino)-2-propylphenyl)-4-oxothiazolidin-2-ylidene)-3-(2-fluoro-4-(1-(5-(trifluoromethoxy)pyridin-2-yl)-1H-1,2,4-triazol-3-yl)phenyl)urea], the pest or weed control at 50 µg/cm2 in assay [1] (setting [3]) and in assay [2] (setting [4]) was 50 to 100% throughout.

In the case of `COc1ccc(COCC(F)(F)F)c(N2C(=O)CS/C2=N\C(=O)Nc2ccc(-c3ncn(-c4ccc(S(F)(F)(F)(F)F)cc4)n3)cc2F)c1` [Compound J565], in assay [1], the CL rating result is recorded as “A (50-100)”. The BAW rating result in assay [2] is given as “A (50-100)”.

Values taken from patent publication US20230077362A1 (CORTEVA AGRISCIENCE LLC, priority 2019, published 2023).
